Entries after “also recorded” stand apart in the source; their conditions may differ.
Assays:
Format in all cases: cell-based, Human
[1] = system: Aβ-GFP SH-SY5Y cells; assay: Western blot in Aβ-GFP SH-SY5Y cells; conditions: inhibitor 10 μM on day 6, LM-021 5 μM
Procedure: (§1) To monitor the cAMP-mediated signal transduction pathway, CRE-GFP 293 cells in 6-well plates (1 × 10^6/well) were pretreated with kinase inhibitor H-89 (LC Laboratories, Woburn, MA, USA), KN-62 (Cayman Chemical, Ann Arbor, MI, USA), U0126 (LC Laboratories), or wortmannin (LC Laboratories) (10 μM) for 4 h before forskolin or LM-021 (10 μM) addition for 5 h. GFP fluorescence/protein and total/phosphorylated PKA, CaMKII, ERK, PI3K, and CREB levels were examined. In addition, Aβ-GFP or ∆K280 tauRD-DsRed SH-SY5Y cells were treated with retinoic acid (10 μM) on day 1, followed by the addition of LM-021 (5 or 10 μM) and doxycycline (5 or 2 μg/ml) on day 2, as described. Kinase inhibitors (10 μM) were added on day 6. On day 8, the cells were collected for protein expression analysis of BDNF, BCL2 (BCL2 apoptosis regulator), and BAX (BCL2 associated X, apoptosis regulator), and total/phosphorylated PKA, CaMKII, ERK, PI3K, and CREB. Also, cells were stained with DAPI and assessed for neurite outgrowth as described above.
(§2) Total proteins from CRE-GFP 293 and Aβ-GFP, ∆K280 tauRD-DsRed SH-SY5Y cells were extracted using lysis buffer (50 mM Tris-HCl (pH 8.0), 150 mM NaCl, 1 mM EDTA (pH 8.0), 1 mM EGTA (pH 8.0), 0.1% SDS, 0.5% sodium deoxycholate, 1% Triton X-100) containing phosphatase and protease inhibitor cocktails (Sigma-Aldrich). Protein concentrations were measured using a protein assay kit (Bio-Rad, Hercules, CA, USA), and 20 μg of proteins was separated with 10% SDS-PAGE and blotted onto polyvinylidene difluoride (PVDF) membranes (Sigma-Aldrich). After blocking, the membrane blot was incubated with primary antibody against GFP (1 : 500; Santa Cruz Biotechnology, Santa Cruz, CA, USA), PKA (1 : 1000; R&D Systems, Minneapolis, MN, USA), p-PKA (T197) (1 : 1000; Cell Signaling, Danvers, MA, USA), ERK (1 : 500; Cell Signaling), p-ERK (T202/Y204) (1 : 500; Cell Signaling), CaMKII (1 : 1000; Santa Cruz Biotechnology), p-CaMKII (T286) (1 : 1000; Cell Signaling), CREB (1 : 1000; Santa Cruz Biotechnology), p-CREB (S133) (1 : 1000; Millipore, Billerica, MA, USA), BDNF (1 : 500; Santa Cruz Biotechnology), BCL2 (1 : 500; BioVision), BAX (1 : 500; BioVision), GAPDH (glyceraldehyde-3-phosphate dehydrogenase, as a loading control) (1 : 1000; MDBio, Taipei, Taiwan), or β-tubulin (1 : 1000, Sigma-Aldrich, as a loading control). The immune complexes were visualized using horseradish peroxidase-conjugated goat anti-mouse or goat anti-rabbit IgG antibody (1 : 5000, GeneTex, Irvine, CA, USA) and a chemiluminescent substrate (Millipore).

[2] = system: CRE-GFP 293 cells; assay: Western blot in CRE-GFP 293 cells; conditions: inhibitor 10 μM, LM-021 10 μM, without Ca2+ ionophore, immunoblot
Procedure: as §1
Total proteins from CRE-GFP 293 and Aβ-GFP, ∆K280 tauRD-DsRed SH-SY5Y cells were extracted using lysis buffer (50 mM Tris-HCl (pH 8.0), 150 mM NaCl, 1 mM EDTA (pH 8.0), 1 mM EGTA (pH 8.0), 0.1% SDS, 0.5% sodium deoxycholate, 1% Triton X-100) containing phosphatase and protease inhibitor cocktails (Sigma-Aldrich). Protein concentrations were measured using a protein assay kit (Bio-Rad, Hercules, CA, USA), and 20 μg of proteins was separated with 10% SDS-PAGE and blotted onto polyvinylidene difluoride (PVDF) membranes (Sigma-Aldrich). […]

[3] = system: Aβ-GFP SH-SY5Y cells; assay: High content analysis of neurite outgrowth in Aβ-GFP cells; conditions: inhibitor 10 μM on day 6, LM-021 5 μM
Procedure: (§3) On day 1, Aβ-GFP or ∆K280 tauRD-DsRed SH-SY5Y cells were plated into 24-well plates (6 × 10^4/well) followed by addition of retinoic acid. On day 2, cells were treated with coumarin-chalcone derivatives (5 or 10 μM) and with doxycycline (5 or 2 μg/ml) to induce the expression of Aβ-GFP or ∆K280 tauRD-DsRed. On day 8, 4% paraformaldehyde, 0.1% Triton X-100, and 3% BSA were used to fix, permeabilize, and block cells, respectively. Subsequently, the cells were stained with TUBB3 (neuronal class III β-tubulin) primary antibody (1 : 1000; Covance, Princeton, NJ, USA) at 4°C overnight. Goat anti-rabbit Alexa Fluor 555 secondary antibody (1 : 1000; Thermo Fisher Scientific) was then added, followed by a 3 h incubation at room temperature. Following staining nuclei with 4′,-6-diamidino-2-phenylindole (DAPI) (0.1 μg/ml; Sigma-Aldrich), the neurons were imaged by using the HCA system and analysed by using the Neurite Outgrowth Application Module (MetaXpress; Molecular Devices).
as §1

[4] = system: ∆K280 tauRD-DsRed SH-SY5Y cells; assay: Western blot in ΔK280 tauRD-DsRed SH-SY5Y cells; conditions: inhibitor 10 μM on day 6, LM-021 10 μM
Procedure: as §1, §2

[5] = system: CRE-GFP 293 cells; assay: CRE-GFP 293 reporter cell assay (flow cytometry); conditions: for Effect of kinase inhibitor on LM-021-activated GFP levels: inhibitor 10 μM 4 h before LM-021 10 μM, presence or absence of Ca2+ ionophore
Description: Using the pCRE-MetLuc2-Reporter plasmid (Clontech, Mountain View, CA, USA) as a template, the DNA fragment containing the cAMP response element (CRE) motifs and TATA-like promoter (PTAL) flanked by MluI and AgeI restriction sites was amplified by PCR using sense ([…], MluI site underlined) and antisense ([…], AgeI site underlined) primers. The amplified CRE-PTAL promoter fragment was cloned into pGEM-T Easy (Promega, Madison, WI, USA) and sequenced. The CRE-PTAL-containing MluI/AgeI fragment and GFP-containing AgeI/NotI fragment (from pEGFP-N1; Clontech) were subcloned into MluI- and NotI-digested pcDNA5/FRT/TO (Novagen, Madison, WI, USA). The resulting construct with CRE-PTAL-driving GFP was used to establish 293 GFP reporter cells by targeting insertion into Flp-In-293 cells according to the supplier's instructions (Invitrogen). The cells were grown in a medium containing 5 μg/ml blasticidin and 100 μg/ml hygromycin.
On day 1, CRE-GFP 293 cells were seeded into 48-well plates (5 × 10^4/well). After 24 h, cells were treated with Ca^2+ ionophore (2 μM) (Sigma-Aldrich) for 0–24 h. Cell viability was measured using 3,(4,5-dimethylthiazol-2-yl)-2,5-diphenyltetrazolium bromide (MTT) assay (Sigma-Aldrich). The absorbance of the insoluble purple formazan dye was quantified at 570 nm on a μQuant microplate spectrophotometer (Bio-Tek). In addition, the cells were treated with the Ca^2+ ionophore A23187 (0.5–10 μM) (Sigma-Aldrich) for 5 h, followed by analysis of GFP fluorescence by flow cytometry (Becton–Dickinson, Franklin Lakes, NJ, USA) with excitation/emission wavelengths at 488/507 nm. To monitor CREB activation, cells were treated with forskolin or coumarin-chalcone derivatives (5–10 μM) in the presence or absence of Ca^2+ ionophore (2 μM) for 5 h, and GFP fluorescence was analysed.
as §1

[6] = system: ∆K280 tauRD-DsRed SH-SY5Y cells; assay: High content analysis of neurite outgrowth in ΔK280 tauRD-DsRed cells; conditions: inhibitor 10 μM on day 6, LM-021 10 μM
Procedure: as §3, §1

Row | SMILES | Effect of kinase inhibitor on LM-021-upregulated kinase phosphorylation [1] | Effect of kinase inhibitor on LM-021 increase in p-CREB, pro-BDNF, m-BDNF, and BCL2 [1] | Effect of kinase inhibitor on increased p-CREB and GFP protein levels [2] | Effect of kinase inhibitor on LM-021-improved neurite length, processes, and branches [3] | Effect of kinase inhibitor on LM-021-upregulated kinase phosphorylation [4] | Effect of kinase inhibitor on LM-021 upregulation of p-CREB, pro-BDNF, m-BDNF, and BCL2 [4] | Effect of kinase inhibitor on LM-021-activated GFP levels [5] | Effect of kinase inhibitor on LM-021-ameliorated neurite length and branch length [6] | Effect of kinase inhibitor on forskolin-activated GFP level ([5]; inhibitor 10 μM 4 h before forskolin 10 μM, presence of Ca2+ ionophore)
1 | CN([C@@H](Cc1ccc(OS(=O)(=O)c2cccc3cnccc23)cc1)C(=O)N1CCN(c2ccccc2)CC1)S(=O)(=O)c1cccc2cnccc12 [KN-62] | mitigated the upregulation of p-CaMKII; also recorded: normalized p-ERK | attenuated the increase | significantly reduced | counteracted these improvements | diminished the increase of p-CaMKII | attenuated the upregulation | attenuated the GFP levels | reversed these effects | 
2 | O=S(=O)(NCCNC/C=C/c1ccc(Br)cc1)c1cccc2cnccc12 [H-89] | mitigated the increase of p-PKA | attenuated the increase | significantly reduced | counteracted these improvements | reduced the upregulation of p-PKA | attenuated the upregulation | attenuated the GFP levels | reversed these effects | attenuated the GFP level

Source: article PMC8605905 (Oxidative Medicine and Cellular Longevity, 2021)
